Assays:
Assay type in all cases: ADME
[1] = (§1) The drug is tested on Parabacteroides merdae strain: DSM19495 for biotransformation under anaerobic condition. The drug concentrations were measured over 6 timepoints collected between 0 and 12 hours of incubation by liquid-chromatography-coupled mass spectrometry (LC–MS); set-up: dose 5 uM, timepoint 0, 1.5, 3, 6, 9, 12 hours; details: 5 µM
[2] = (§2) The drug is tested on Bifidobacterium longum strain: DSM20088 for biotransformation under microaerobic condition. The drug concentrations were measured over 6 timepoints collected between 0 and 12 hours of incubation by liquid-chromatography-coupled mass spectrometry (LC–MS); set-up: dose 5 uM, timepoint 0, 1.5, 3, 6, 9, 12 hours; details: 5 µM
[3] = The drug is tested on Streptococcus mitis strain: DSM12643 for biotransformation under anaerobic condition. The drug concentrations were measured over 6 timepoints collected between 0 and 12 hours of incubation by liquid-chromatography-coupled mass spectrometry (LC–MS); set-up: dose 5 uM, timepoint 0, 1.5, 3, 6, 9, 12 hours; details: 5 µM
[4] = The drug is tested on Faecalibacterium prausnitzii strain: DSM17677 for biotransformation under anaerobic condition. The drug concentrations were measured over 6 timepoints collected between 0 and 12 hours of incubation by liquid-chromatography-coupled mass spectrometry (LC–MS); set-up: dose 5 uM, timepoint 0, 1.5, 3, 6, 9, 12 hours; details: faecalibacterium duncaniae, 5 µM
[5] = The drug is tested on Bacteroides xylanisolvens strain: HM 722 for biotransformation under anaerobic condition. The drug concentrations were measured over 6 timepoints collected between 0 and 12 hours of incubation by liquid-chromatography-coupled mass spectrometry (LC–MS); set-up: dose 5 uM, timepoint 0, 1.5, 3, 6, 9, 12 hours; details: 5 µM
[6] = The drug is tested on Parabacteroides distasonis strain: DSM20701 for biotransformation under anaerobic condition. The drug concentrations were measured over 6 timepoints collected between 0 and 12 hours of incubation by liquid-chromatography-coupled mass spectrometry (LC–MS); set-up: dose 5 uM, timepoint 0, 1.5, 3, 6, 9, 12 hours; details: 5 µM
[7] = The drug is tested on Roseburia intestinalis strain: DSM14610 for biotransformation under anaerobic condition. The drug concentrations were measured over 6 timepoints collected between 0 and 12 hours of incubation by liquid-chromatography-coupled mass spectrometry (LC–MS); set-up: dose 5 uM, timepoint 0, 1.5, 3, 6, 9, 12 hours; details: 5 µM
[8] = as §1, with “the gut metagenome community of A-06 with ENA study accession number: PRJEB31790” for “Parabacteroides merdae strain: DSM19495”, “7” for “6”; set-up: dose 5 uM, timepoint 0, 0.75, 1.5, 3, 6, 9, 12 hours; details: 5 µM
[9] = The drug is tested on Eubacterium hallii strain: DSM3353 for biotransformation under anaerobic condition. The drug concentrations were measured over 6 timepoints collected between 0 and 12 hours of incubation by liquid-chromatography-coupled mass spectrometry (LC–MS); set-up: dose 5 uM, timepoint 0, 1.5, 3, 6, 9, 12 hours; details: anaerobutyricum hallii, 5 µM
[10] = as §1, with “the gut metagenome community of P-03 with ENA study accession number: PRJEB31790” for “Parabacteroides merdae strain: DSM19495”, “7” for “6”; set-up: dose 5 uM, timepoint 0, 0.75, 1.5, 3, 6, 9, 12 hours; details: 5 µM
[11] = The drug is tested on Dorea formicigenerans strain: DSM3992 for biotransformation under anaerobic condition. The drug concentrations were measured over 6 timepoints collected between 0 and 12 hours of incubation by liquid-chromatography-coupled mass spectrometry (LC–MS); set-up: dose 5 uM, timepoint 0, 1.5, 3, 6, 9, 12 hours; details: 5 µM
[12] = The drug is tested on Lactobacillus gasseri strain: DSM20243 for biotransformation under anaerobic condition. The drug concentrations were measured over 6 timepoints collected between 0 and 12 hours of incubation by liquid-chromatography-coupled mass spectrometry (LC–MS); set-up: dose 5 uM, timepoint 0, 1.5, 3, 6, 9, 12 hours; details: 5 µM
[13] = The drug is tested on Streptococcus anginosus strain: DSM20563 for biotransformation under anaerobic condition. The drug concentrations were measured over 6 timepoints collected between 0 and 12 hours of incubation by liquid-chromatography-coupled mass spectrometry (LC–MS); set-up: dose 5 uM, timepoint 0, 1.5, 3, 6, 9, 12 hours; details: 5 µM
[14] = The drug is tested on Gemella morbillorum strain: DSM20572 for biotransformation under microaerobic condition. The drug concentrations were measured over 6 timepoints collected between 0 and 12 hours of incubation by liquid-chromatography-coupled mass spectrometry (LC–MS); set-up: dose 5 uM, timepoint 0, 1.5, 3, 6, 9, 12 hours; details: 5 µM
[15] = as §2, with “the gut metagenome community of T-01 with ENA study accession number: PRJEB31790” for “Bifidobacterium longum strain: DSM20088”, “7” for “6”; set-up: dose 5 uM, timepoint 0, 0.75, 1.5, 3, 6, 9, 12 hours; details: 5 µM
[16] = as §1, with “the gut metagenome community of A-04 with ENA study accession number: PRJEB31790” for “Parabacteroides merdae strain: DSM19495”, “7” for “6”; set-up: dose 5 uM, timepoint 0, 0.75, 1.5, 3, 6, 9, 12 hours; details: 5 µM
[17] = The drug is tested on Clostridium ramosum strain: DSM1402 for biotransformation under anaerobic condition. The drug concentrations were measured over 6 timepoints collected between 0 and 12 hours of incubation by liquid-chromatography-coupled mass spectrometry (LC–MS); set-up: dose 5 uM, timepoint 0, 1.5, 3, 6, 9, 12 hours; details: thomasclavelia ramosa, 5 µM
[18] = as §1, with “the gut metagenome community of P-02 with ENA study accession number: PRJEB31790” for “Parabacteroides merdae strain: DSM19495”, “7” for “6”; set-up: dose 5 uM, timepoint 0, 0.75, 1.5, 3, 6, 9, 12 hours; details: 5 µM
[19] = The drug is tested on Gemella morbillorum strain: DSM20572 for biotransformation under anaerobic condition. The drug concentrations were measured over 6 timepoints collected between 0 and 12 hours of incubation by liquid-chromatography-coupled mass spectrometry (LC–MS); set-up: dose 5 uM, timepoint 0, 1.5, 3, 6, 9, 12 hours; details: 5 µM
[20] = as §1, with “the gut metagenome community of A-10 with ENA study accession number: PRJEB31790” for “Parabacteroides merdae strain: DSM19495”, “7” for “6”; set-up: dose 5 uM, timepoint 0, 0.75, 1.5, 3, 6, 9, 12 hours; details: 5 µM
[21] = as §2, with “the gut metagenome community of P-04 with ENA study accession number: PRJEB31790” for “Bifidobacterium longum strain: DSM20088”, “7” for “6”; set-up: dose 5 uM, timepoint 0, 0.75, 1.5, 3, 6, 9, 12 hours; details: 5 µM
[22] = as §2, with “the gut metagenome community of A-09 with ENA study accession number: PRJEB31790” for “Bifidobacterium longum strain: DSM20088”, “7” for “6”; set-up: dose 5 uM, timepoint 0, 0.75, 1.5, 3, 6, 9, 12 hours; details: 5 µM
[23] = The drug is tested on Clostridium bolteae strain: DSM15670 for biotransformation under anaerobic condition. The drug concentrations were measured over 6 timepoints collected between 0 and 12 hours of incubation by liquid-chromatography-coupled mass spectrometry (LC–MS); set-up: dose 5 uM, timepoint 0, 1.5, 3, 6, 9, 12 hours; details: enterocloster bolteae, 5 µM
[24] = as §2, with “the gut metagenome community of T-02 with ENA study accession number: PRJEB31790” for “Bifidobacterium longum strain: DSM20088”, “7” for “6”; set-up: dose 5 uM, timepoint 0, 0.75, 1.5, 3, 6, 9, 12 hours; details: 5 µM
[25] = The drug is tested on Gemella haemolysans strain: DSM107751 for biotransformation under anaerobic condition. The drug concentrations were measured over 6 timepoints collected between 0 and 12 hours of incubation by liquid-chromatography-coupled mass spectrometry (LC–MS); set-up: dose 5 uM, timepoint 0, 1.5, 3, 6, 9, 12 hours; details: 5 µM
[26] = The drug is tested on Streptococcus sanguinis strain: DSM20567 for biotransformation under anaerobic condition. The drug concentrations were measured over 6 timepoints collected between 0 and 12 hours of incubation by liquid-chromatography-coupled mass spectrometry (LC–MS); set-up: dose 5 uM, timepoint 0, 1.5, 3, 6, 9, 12 hours; details: 5 µM
[27] = as §2, with “the gut metagenome community of A-08 with ENA study accession number: PRJEB31790” for “Bifidobacterium longum strain: DSM20088”, “7” for “6”; set-up: dose 5 uM, timepoint 0, 0.75, 1.5, 3, 6, 9, 12 hours; details: 5 µM
[28] = The drug is tested on Ruminococcus gnavus strain: ATCC29149 for biotransformation under anaerobic condition. The drug concentrations were measured over 6 timepoints collected between 0 and 12 hours of incubation by liquid-chromatography-coupled mass spectrometry (LC–MS); set-up: dose 5 uM, timepoint 0, 1.5, 3, 6, 9, 12 hours; details: mediterraneibacter gnavus, 5 µM
[29] = The drug is tested on Akkermansia muciniphila strain: DSM22959 for biotransformation under anaerobic condition. The drug concentrations were measured over 6 timepoints collected between 0 and 12 hours of incubation by liquid-chromatography-coupled mass spectrometry (LC–MS); set-up: dose 5 uM, timepoint 0, 1.5, 3, 6, 9, 12 hours; details: 5 µM
[30] = as §1, with “the gut metagenome community of T-02 with ENA study accession number: PRJEB31790” for “Parabacteroides merdae strain: DSM19495”, “7” for “6”; set-up: dose 5 uM, timepoint 0, 0.75, 1.5, 3, 6, 9, 12 hours; details: 5 µM

Structure (SMILES)	Bacterial Biotransformation [1]	Bacterial Biotransformation [2]	Bacterial Biotransformation [3]	Bacterial Biotransformation [4]	Bacterial Biotransformation [5]	Bacterial Biotransformation [6]	Bacterial Biotransformation [7]	Bacterial Biotransformation [8]	Bacterial Biotransformation [9]	Bacterial Biotransformation [10]	Bacterial Biotransformation [11]	Bacterial Biotransformation [12]	Bacterial Biotransformation [13]	Bacterial Biotransformation [14]	Bacterial Biotransformation [15]	Bacterial Biotransformation [16]	Bacterial Biotransformation [17]	Bacterial Biotransformation [18]	Bacterial Biotransformation [19]	Bacterial Biotransformation [20]	also measured
C[C@@H]1C[C@H]2[C@@H]3CCC4=CC(=O)C=C[C@]4(C)[C@@]3(F)[C@@H](O)C[C@]2(C)[C@@]1(O)C(=O)CO [DEXAMETHASONE]	Compound NOT metabolized	Compound NOT metabolized	Compound NOT metabolized	Compound NOT metabolized	Compound NOT metabolized	Compound NOT metabolized	Compound NOT metabolized	Compound metabolized	Compound NOT metabolized	Compound NOT metabolized	Compound NOT metabolized	Compound NOT metabolized	Compound NOT metabolized	Compound NOT metabolized	Compound metabolized	Compound metabolized	Compound NOT metabolized	Compound metabolized	Compound NOT metabolized	Compound NOT metabolized	Bacterial Biotransformation [21]: Compound NOT metabolized; Bacterial Biotransformation [22]: Compound metabolized; Bacterial Biotransformation [23]: Compound NOT metabolized; Bacterial Biotransformation [24]: Compound metabolized; Bacterial Biotransformation [25]: Compound NOT metabolized; Bacterial Biotransformation [26]: Compound NOT metabolized; Bacterial Biotransformation [27]: Compound metabolized; Bacterial Biotransformation [28]: Compound NOT metabolized; Bacterial Biotransformation [29]: Compound NOT metabolized; Bacterial Biotransformation [30]: Compound metabolized
COc1ccc([C@@H]2Sc3ccccc3N(CCN(C)C)C(=O)[C@@H]2OC(C)=O)cc1 [DILTIAZEM]	Compound metabolized	Compound NOT metabolized	Compound NOT metabolized	Compound NOT metabolized	Compound metabolized	Compound metabolized	Compound NOT metabolized	Compound metabolized	Compound NOT metabolized	Compound metabolized	Compound NOT metabolized	Compound NOT metabolized	Compound NOT metabolized	Compound metabolized	Compound metabolized	Compound metabolized	Compound NOT metabolized	Compound metabolized	Compound NOT metabolized	Compound NOT metabolized	Bacterial Biotransformation [21]: Compound NOT metabolized; Bacterial Biotransformation [22]: Compound metabolized; Bacterial Biotransformation [23]: Compound NOT metabolized; Bacterial Biotransformation [24]: Compound metabolized; Bacterial Biotransformation [25]: Compound NOT metabolized; Bacterial Biotransformation [26]: Compound NOT metabolized; Bacterial Biotransformation [27]: Compound metabolized; Bacterial Biotransformation [28]: Compound NOT metabolized; Bacterial Biotransformation [29]: Compound NOT metabolized; Bacterial Biotransformation [30]: Compound NOT metabolized
CO[C@H]1C[C@@H]2CC[C@@H](C)[C@@](O)(O2)C(=O)C(=O)N2CCCC[C@H]2C(=O)O[C@H]([C@H](C)C[C@@H]2CC[C@@H](OCCO)[C@H](OC)C2)CC(=O)[C@H](C)/C=C(\C)[C@@H](O)[C@@H](OC)C(=O)[C@H](C)C[C@H](C)/C=C/C=C/C=C/1C [EVEROLIMUS]	Compound NOT metabolized	Compound NOT metabolized	Compound NOT metabolized	Compound NOT metabolized	Compound NOT metabolized	Compound NOT metabolized	Compound metabolized	Compound metabolized	Compound metabolized	Compound NOT metabolized	Compound metabolized	Compound NOT metabolized	Compound NOT metabolized	Compound NOT metabolized	Compound NOT metabolized	Compound metabolized	Compound NOT metabolized	Compound NOT metabolized	Compound NOT metabolized	Compound metabolized	Bacterial Biotransformation [21]: Compound NOT metabolized; Bacterial Biotransformation [22]: Compound metabolized; Bacterial Biotransformation [23]: Compound metabolized; Bacterial Biotransformation [24]: Compound metabolized; Bacterial Biotransformation [25]: Compound NOT metabolized; Bacterial Biotransformation [26]: Compound NOT metabolized; Bacterial Biotransformation [27]: Compound metabolized; Bacterial Biotransformation [28]: Compound NOT metabolized; Bacterial Biotransformation [29]: Compound NOT metabolized; Bacterial Biotransformation [30]: Compound metabolized
